Measurements: paper PMC4580987, “Catalytic site inhibition of insulin-degrading enzyme by a small molecule induces glucose intolerance in mice” (Nature Communications, 2015)

What was measured:
[1] = molecular target: T1, hIDE (Homo sapiens, UniProt P14735); test: In vitro hIDE inhibition of Aβ16–23-based substrate hydrolysis; type: biochemical; details: for inhibition at 100 µM: 100 µM (footnote c)
T1 construct: made in house
T1 sequence (P14735 1-1019): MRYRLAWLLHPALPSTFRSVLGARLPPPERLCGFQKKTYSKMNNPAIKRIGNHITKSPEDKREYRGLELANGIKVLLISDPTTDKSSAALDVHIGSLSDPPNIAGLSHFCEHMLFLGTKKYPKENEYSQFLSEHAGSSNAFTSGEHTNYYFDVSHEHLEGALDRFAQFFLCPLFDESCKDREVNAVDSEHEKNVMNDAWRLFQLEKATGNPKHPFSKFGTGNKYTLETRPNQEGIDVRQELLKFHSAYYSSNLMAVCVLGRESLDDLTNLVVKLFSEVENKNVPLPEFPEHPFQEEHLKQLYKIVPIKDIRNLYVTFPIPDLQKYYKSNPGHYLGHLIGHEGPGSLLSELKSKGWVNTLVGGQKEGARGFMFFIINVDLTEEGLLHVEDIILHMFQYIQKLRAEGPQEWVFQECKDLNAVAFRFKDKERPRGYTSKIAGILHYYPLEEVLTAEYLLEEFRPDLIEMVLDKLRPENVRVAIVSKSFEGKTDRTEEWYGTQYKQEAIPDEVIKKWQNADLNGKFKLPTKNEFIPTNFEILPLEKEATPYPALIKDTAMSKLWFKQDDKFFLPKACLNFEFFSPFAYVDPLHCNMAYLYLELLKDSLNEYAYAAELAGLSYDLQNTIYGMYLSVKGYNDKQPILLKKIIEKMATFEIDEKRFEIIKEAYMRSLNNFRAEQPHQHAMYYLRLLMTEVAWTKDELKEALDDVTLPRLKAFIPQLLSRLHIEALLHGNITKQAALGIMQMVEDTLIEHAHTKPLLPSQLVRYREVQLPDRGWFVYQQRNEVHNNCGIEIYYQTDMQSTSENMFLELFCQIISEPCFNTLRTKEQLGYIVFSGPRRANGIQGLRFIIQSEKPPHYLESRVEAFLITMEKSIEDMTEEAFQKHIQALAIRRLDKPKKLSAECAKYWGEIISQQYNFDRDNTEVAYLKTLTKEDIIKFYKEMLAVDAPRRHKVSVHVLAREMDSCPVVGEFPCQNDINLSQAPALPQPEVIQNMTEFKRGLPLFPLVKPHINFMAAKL
Experimental: In vitro IDE activity was measured with a quenched substrate […]. Human recombinant IDE was cloned and purified as previously described. […] All measurements were carried out as 8-point dose response curves and reported as the average of at least three independent measurements. […] Data analysis was performed using Xlfit v 5.0 and GraphPad Prism v 4.0. Nonlinear curve fitting and statistical analysis was done using built-in functions.

[2] = molecular target: T1, hIDE; test: In vitro hIDE inhibition of insulin hydrolysis; type: biochemical; details: for IC50: full insulin substrate, value (CI 95%), mean of 3 to 10 experiments, read-out: IC50 insulin hydrolysis
Experimental: The enzymatic activity of hIDE was assayed quantifying the amount of insulin (Actrapid) at the end of the reaction. The quantity of insulin was determined using a Luminex kit (HMHMAG-34K, Millipore). 20 μl of WT IDE in Hepes buffer (50 mM with 100 mM NaCl, pH 7.4) at 1 μg ml^−1 were pre-incubated 10 min at ambient temperature with 20 μl of test compound or vehicle in 96-well microtiter plates (dark, non-binding surface). The reaction was then started by the addition of 40 μl of insulin at 40 nM. The final concentration of hIDE and substrate was 0.25 μg ml^−1 and 20 nM, respectively. Incubations were performed at ambient temperature for 10 min. The reaction was then stopped by addition of 80 μl of 200 mM EDTA. The samples were diluted by a factor of 3, and 15 μl were transferred to 96-well microtiter plates (dark, clear bottom, non-binding surface) containing 15 μl of assay buffer (from Luminex Kit). Fifteen microlitre of insulin magnetic beads were added. Incubation was performed during 16–18 h at 4 °C under agitation. Wells were washed three times and 30 μl of hormone panel antibodies were added. The samples were incubated 30 min at ambient temperature under agitation. 30 μl of strepdavidin-phycoerythrin were added. Incubation was performed 30 min at ambient temperature under agitation. Wells were washed three times and 80 μl of drive fluid were added. The plate was then read with the MagPix apparatus. Data analysis was performed using Xlfit v 5.0 and GraphPad Prism v 4.0. Nonlinear curve fitting and statistical analysis was done using equation 1: […]
where A is minimum value of y; B is range of y; C is the IC50 value and D is slope factor.

[3] = tested on: human SY5Y neuroblastoma cells; test: Aβ1–40 secretion by differentiated SH-SY5Y cells (ELISA); type: cell-based; details: 10 μM and 30 μM, 48 h
Experimental: The human neuroblastoma cell lines SH-SY5Y were provided from ATCC (cat. no. crl2266) with a Certificate of Analysis and not checked in the lab for mycoplasma contamination. […] SH-SY5Y were seeded in a 96-well plate at 200,000 cells per cm^2. […] Differentiated cells were then incubated with compounds at 10 μM and 30 μM in presence of 0.1% DMSO.

[4] = tested on: mice; set-up: method as in Maianti et al, Nature 2014; details: ref Maianti et al, Nature 2014, cited from earlier work
[5] = molecular target: T1, hIDE; test: 19F NMR ligand-observed interaction with the enzyme; type: binding; details: 5 μM enzyme
Experimental: […] The carrier frequency was set at −100 p.p.m. with a spectral window of 40 ppm, and 4,024 scans were recorded per sample, except for the 6.25 μM sample for which 12,288 scans were recorded.

Row | Compound | IC50 [1] [µM] | IC50 [2] [µM] | also measured
1 | O=C(C[C@@H](Cc1ccc2ccccc2c1)n1nncc1CNC(=O)C1CCCCC1)NO [Compound 17] | > 100 | 30 | inhibition at 100 µM [1]: < 10%
2 | O=C(C[C@@H](Cc1ccc2ccccc2c1)n1cc(CNC(=O)c2ccccc2)nn1)NO [Compound 2] | 0.7 | 0.51 | melting point: 192.8 to 194 °C
3 | O=C(O)CN(CCN(CC(=O)O)CC(=O)O)CC(=O)O [EDTA, reference compound] |  |  | inhibition of IDE by reference inhibitor ([1]; 2 mM): 100%
4 | Cc1ccc(CC(=O)NCc2cn([C@@H](CC(=O)NO)Cc3ccc4ccccc4c3)nn2)cc1 [Compound 7] | 12 | 2.3 | 
5 | O=C(C[C@@H](Cc1ccc2ccccc2c1)n1cc(CNS(=O)(=O)c2ccc(F)cc2)nn1)NO [Compound 9] | 5.7 | 6 | melting point: 157.1 to 158.7 °C
6 | NCCCC[C@@H]1NC(=O)/C=C/C(=O)N[C@H](C(N)=O)CCCCNC(=O)[C@@H](Cc2ccc(C(=O)c3ccccc3)cc2)NC(=O)[C@H](CC2CCCCC2)NC1=O [6bK] |  |  | glucose tolerance in OGTT, 6bK ([4]; IDE dependant, GLP-1 dependant, insulin driven): Improves glucose tolerance in OGTT; glucose tolerance in IPGTT, 6bK ([4]; IDE dependant): Impairs glucose tolerance in IPGTT; gluconeogenesis in a pyruvate tolerance test, 6bK [4]: Lowers gluconeogenesis; insulin action in vivo (ITT), 6bK [4]: Augments insulin action in vivo
7 | O=C(C[C@@H](Cc1ccc2ccccc2c1)n1cc(CNC(=O)C2CCCCC2)nn1)NO [Compound 5] | 0.8 | 0.44 | melting point: 176.6 to 177.9 °C
8 | O=C(O)C[C@@H](Cc1ccc2ccccc2c1)n1cc(CNC(=O)c2ccc(F)cc2)nn1 [Compound 14] | > 100 | 30 | 
9 | O=C(CC(Cc1ccc2ccccc2c1)c1nc(CNC(=O)c2ccccc2)no1)NO (centres unmarked) [Compound 11] | 74 | 9.6 | 
10 | Cc1ccc(C(=O)NCc2cn([C@@H](CC(=O)NO)Cc3ccc4ccccc4c3)nn2)cc1 [Compound 3] | 2.7 | 6.7 | melting point: 181.7 to 182.6 °C

Second part, led by results:

Row | IC50 [1] [µM] | IC50 [2] [µM] | Compound | also measured
11 | 4.5 | 3.4 | COc1ccc(C(=O)NCc2cn([C@@H](CC(=O)NO)Cc3ccc4ccccc4c3)nn2)cc1 [Compound 4] | melting point: 178.3 to 179.6 °C
12 | > 100 | 6.1 | Cc1ccc(C(=O)NCc2cn(C(CC(=O)NO)Cc3ccccc3)nn2)cc1 (centres unmarked) [Compound 10] | inhibition at 100 µM [1]: < 10%; fold less active than 1 against purified IDE ([2]; relative to compound 1): 100 fold; Aβ1–40 in culture supernatants [3]: had no effect
13 | 29 | 6.5 | O=C(C[C@@H](Cc1ccc2ccccc2c1)c1nc(CNC(=O)c2ccc(F)cc2)no1)NO [Compound 12] | 
14 | 80 | > 100 | O=C(CC(Cc1ccccc1)n1cc(CNC(=O)c2ccc(F)cc2)nn1)NO (centres unmarked) [Compound 19] | inhibition at 300 µM ([2]; 300 µM (footnote d)): 50%
15 | 2.8 | 2 | O=C(C[C@H](Cc1ccc2ccccc2c1)n1cc(CNC(=O)c2ccc(F)cc2)nn1)NO [Compound 15] | 
16 | > 100 | 12.1 | O=C(C[C@@H](Cc1ccc2ccccc2c1)n1nncc1CNC(=O)c1ccc(F)cc1)NO [Compound 16] | inhibition at 100 µM [1]: < 10%; 19F NMR signal in the presence of enzyme at 2:1 or 1:1 compound:enzyme ratio [5]: signal intensity remains detectable
17 | 3.2 | 0.74 | O=C(C[C@@H](Cc1ccc2ccccc2c1)n1cc(CNC(=O)Cc2ccccc2)nn1)NO [Compound 6] | 
